# Results reported in PubChem BioAssay (NCI).
#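 Growth conditions: 96-well plates. Treatment: test compound, 48 hours, 5 concentrations. Analysis: linear interpolation between bracketing concentrations; unreached endpoints set to highest concentration. TGI denotes the concentration required for complete inhibition of growth.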
# Experiments:
# Assay in all cases: NCI anticancer screen, dose series, 48 h
# KM20L2 colon = test system: KM20L2 colon
# DMS 114 small cell lung = test system: DMS 114 small cell lung
# OVCAR-3 ovarian = test system: OVCAR-3 ovarian
# UO-31 renal = test system: UO-31 renal
# HOP-18 NSCLC = test system: HOP-18 NSCLC
# HT29 colon = test system: HT29 colon
# COLO 205 colon = test system: COLO 205 colon
# NCI-H23 lung = test system: NCI-H23 lung
# LXFL 529 NSCLC = test system: LXFL 529 NSCLC
# 786-0 renal = test system: 786-0 renal
# TK-10 renal = test system: TK-10 renal
# SK-MEL-5 melanoma = test system: SK-MEL-5 melanoma
# NCI-H226 lung = test system: NCI-H226 lung
# SF-268 CNS = test system: SF-268 CNS
# RPMI-8226 leukemia = test system: RPMI-8226 leukemia
# CCRF-CEM leukemia = test system: CCRF-CEM leukemia
# DMS 273 small cell lung = test system: DMS 273 small cell lung
# M14 melanoma = test system: M14 melanoma
# HL-60(TB) leukemia = test system: HL-60(TB) leukemia
# K-562 leukemia = test system: K-562 leukemia
# SR leukemia = test system: SR leukemia
# IGROV1 ovarian = test system: IGROV1 ovarian
# M19-MEL melanoma = test system: M19-MEL melanoma
# HCT-15 colon = test system: HCT-15 colon
# UACC-257 melanoma = test system: UACC-257 melanoma
# SW-620 colon = test system: SW-620 colon
# OVCAR-5 ovarian = test system: OVCAR-5 ovarian
# SF-295 CNS = test system: SF-295 CNS
# A549 NSCLC = test system: A549 NSCLC
# KM12 colon = test system: KM12 colon
# MALME-3M melanoma = test system: MALME-3M melanoma
# SK-MEL-28 melanoma = test system: SK-MEL-28 melanoma
# ACHN renal = test system: ACHN renal
# SNB-19 CNS = test system: SNB-19 CNS
# U251 CNS = test system: U251 CNS
# SK-OV-3 ovarian = test system: SK-OV-3 ovarian
# MOLT-4 leukemia = test system: MOLT-4 leukemia
# HOP-92 NSCLC = test system: HOP-92 NSCLC
# DLD-1 colon = test system: DLD-1 colon
# SK-MEL-2 melanoma = test system: SK-MEL-2 melanoma
# OVCAR-8 ovarian = test system: OVCAR-8 ovarian
# NCI-H522 lung = test system: NCI-H522 lung
# HCC-2998 colon = test system: HCC-2998 colon
# SF-539 CNS = test system: SF-539 CNS
# RXF 393 renal = test system: RXF 393 renal
# EKVX NSCLC = test system: EKVX NSCLC
# NCI-H460 lung = test system: NCI-H460 lung
# SN12C renal = test system: SN12C renal
# LOX IMVI melanoma = test system: LOX IMVI melanoma
# UACC-62 melanoma = test system: UACC-62 melanoma
# CAKI-1 renal = test system: CAKI-1 renal
# HOP-62 NSCLC = test system: HOP-62 NSCLC
# OVCAR-4 ovarian = test system: OVCAR-4 ovarian
# HCT-116 colon = test system: HCT-116 colon
# DU-145 prostate = test system: DU-145 prostate
# PC-3 prostate = test system: PC-3 prostate
# MDA-MB-435 = test system: MDA-MB-435
# MCF7 breast = test system: MCF7 breast
# MDA-MB-231 breast = test system: MDA-MB-231 breast
# BT-549 breast = test system: BT-549 breast
# MDA-N = test system: MDA-N
# A498 renal = test system: A498 renal
# SNB-75 CNS = test system: SNB-75 CNS
# T-47D breast = test system: T-47D breast
# NCI/ADR-RES ovarian = test system: NCI/ADR-RES ovarian
# HS 578T breast = test system: HS 578T breast
smiles,measurement,setting,value
C#C[C@]1(O)CCCC2=CC(=O)CC[C@@]21C,TGI,KM20L2 colon,> 100 µM
same,TGI,DMS 114 small cell lung,> 100 µM
same,TGI,OVCAR-3 ovarian,> 100 µM
same,TGI,UO-31 renal,> 100 µM
same,TGI,HOP-18 NSCLC,> 100 µM
same,TGI,HT29 colon,> 100 µM
same,TGI,COLO 205 colon,> 100 µM
same,TGI,NCI-H23 lung,> 100 µM
same,TGI,LXFL 529 NSCLC,> 100 µM
same,TGI,786-0 renal,> 100 µM
same,TGI,TK-10 renal,> 100 µM
same,TGI,SK-MEL-5 melanoma,> 100 µM
same,TGI,NCI-H226 lung,> 100 µM
same,TGI,SF-268 CNS,> 100 µM
same,TGI,RPMI-8226 leukemia,> 100 µM
same,TGI,CCRF-CEM leukemia,> 100 µM
same,TGI,DMS 273 small cell lung,> 100 µM
same,TGI,M14 melanoma,> 100 µM
same,TGI,HL-60(TB) leukemia,> 100 µM
same,TGI,K-562 leukemia,> 100 µM
same,TGI,SR leukemia,> 100 µM
same,TGI,IGROV1 ovarian,> 100 µM
same,TGI,M19-MEL melanoma,> 100 µM
same,TGI,HCT-15 colon,> 100 µM
same,TGI,UACC-257 melanoma,> 100 µM
same,TGI,SW-620 colon,> 100 µM
same,TGI,OVCAR-5 ovarian,> 100 µM
same,TGI,SF-295 CNS,> 100 µM
same,TGI,A549 NSCLC,> 100 µM
same,TGI,KM12 colon,> 100 µM
same,TGI,MALME-3M melanoma,> 100 µM
same,TGI,SK-MEL-28 melanoma,> 100 µM
same,TGI,ACHN renal,> 100 µM
same,TGI,SNB-19 CNS,> 100 µM
same,TGI,U251 CNS,> 100 µM
same,TGI,SK-OV-3 ovarian,> 100 µM
same,TGI,MOLT-4 leukemia,> 100 µM
same,TGI,HOP-92 NSCLC,> 100 µM
same,TGI,DLD-1 colon,> 100 µM
same,TGI,SK-MEL-2 melanoma,> 100 µM
same,TGI,OVCAR-8 ovarian,> 100 µM
same,TGI,NCI-H522 lung,> 100 µM
same,TGI,HCC-2998 colon,> 100 µM
same,TGI,SF-539 CNS,> 100 µM
same,TGI,RXF 393 renal,> 100 µM
same,TGI,EKVX NSCLC,> 100 µM
same,TGI,NCI-H460 lung,> 100 µM
same,TGI,SN12C renal,> 100 µM
C[C@]12CC[C@@H]3c4cc(OCC(F)(F)F)c(O)cc4CC[C@H]3[C@@H]1CC[C@@H]2O,TGI,OVCAR-3 ovarian,12.9 µM
same,TGI,LOX IMVI melanoma,17.1 µM
same,TGI,UO-31 renal,22.3 µM
same,TGI,UACC-62 melanoma,17.3 µM
same,TGI,CAKI-1 renal,29.9 µM
same,TGI,HT29 colon,15.3 µM
same,TGI,HOP-62 NSCLC,26.7 µM
same,TGI,COLO 205 colon,28.2 µM
same,TGI,NCI-H23 lung,19.3 µM
same,TGI,OVCAR-4 ovarian,> 53.1 µM
same,TGI,HCT-116 colon,16.7 µM
same,TGI,786-0 renal,18.1 µM
same,TGI,TK-10 renal,40.4 µM
same,TGI,DU-145 prostate,29.4 µM
same,TGI,SK-MEL-5 melanoma,15.4 µM
same,TGI,NCI-H226 lung,24.7 µM
same,TGI,SF-268 CNS,35.2 µM
same,TGI,RPMI-8226 leukemia,23.1 µM
same,TGI,CCRF-CEM leukemia,15.2 µM
same,TGI,PC-3 prostate,13.8 µM
same,TGI,M14 melanoma,16.8 µM
same,TGI,HL-60(TB) leukemia,10.7 µM
same,TGI,K-562 leukemia,13.5 µM
same,TGI,SR leukemia,2.47 µM
same,TGI,IGROV1 ovarian,23.8 µM
same,TGI,HCT-15 colon,15.2 µM
same,TGI,UACC-257 melanoma,21.4 µM
same,TGI,MDA-MB-435,1.1 µM
same,TGI,SW-620 colon,9.03 µM
same,TGI,OVCAR-5 ovarian,37.7 µM
same,TGI,SF-295 CNS,11.6 µM
same,TGI,A549 NSCLC,20.6 µM
same,TGI,MCF7 breast,17.3 µM
same,TGI,KM12 colon,12.7 µM
same,TGI,MALME-3M melanoma,19 µM
same,TGI,SK-MEL-28 melanoma,26.2 µM
same,TGI,MDA-MB-231 breast,3.11 µM
same,TGI,ACHN renal,47.1 µM
same,TGI,BT-549 breast,89.6 µM
same,TGI,SNB-19 CNS,18.1 µM
same,TGI,MDA-N,1.29 µM
same,TGI,U251 CNS,18.3 µM
same,TGI,SK-OV-3 ovarian,16.8 µM
same,TGI,A498 renal,20.7 µM
same,TGI,MOLT-4 leukemia,18.9 µM
same,TGI,HOP-92 NSCLC,21.8 µM
same,TGI,SK-MEL-2 melanoma,18.5 µM
same,TGI,OVCAR-8 ovarian,34.3 µM
same,TGI,SNB-75 CNS,13.2 µM
same,TGI,NCI-H522 lung,3.88 µM
same,TGI,HCC-2998 colon,16.9 µM
same,TGI,T-47D breast,49.5 µM
same,TGI,SF-539 CNS,7.27 µM
same,TGI,RXF 393 renal,8.68 µM
same,TGI,EKVX NSCLC,30.7 µM
same,TGI,NCI-H460 lung,15.5 µM
same,TGI,SN12C renal,15.5 µM
same,TGI,NCI/ADR-RES ovarian,36.8 µM
same,TGI,HS 578T breast,23 µM
